Our source for the relative viability values is the supplement of paper PMC10307832.

Test in all cases: relative viability (nuclei count vs DMSO), 5 days (fraction); higher = more cells survive
Compound in test [1]: C#Cc1cccc(Nc2ncnc3cc(OCCOC)c(OCCOC)cc23)c1 [Erlotinib] + Cc1nc(NC(=O)N2CCC[C@H]2C(N)=O)sc1-c1ccnc(C(C)(C)C(F)(F)F)c1 [Alpelisib] (partner 2 µM)
Put shortly:
(§1)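 Relative viability was taken as the ratio of nuclei in treated wells to nuclei in vehicle wells. Lung cancer cell lines in 1536-well plates received compounds by pin tool one day after seeding, either one drug alone or a fixed anchor-drug dose plus five library-drug doses (not always all listed) in √10 steps. Nuclei were counted on 4× images after 5 days of treatment, and values are medians of duplicate plates.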

Compound in test [2]: C#Cc1cccc(Nc2ncnc3cc(OCCOC)c(OCCOC)cc23)c1 [Erlotinib] + CC(C)C[C@H](NC(=O)[C@H](Cc1ccccc1)NC(=O)c1cnccn1)B(O)O [Bortezomib] (partner 0.002 µM)
Put shortly:
as §1

Compound in test [3]: O=C(Nc1c[nH]nc1-c1nc2ccc(CN3CCOCC3)cc2[nH]1)NC1CC1 [AT9283] + CCNC(=O)c1noc(-c2cc(C(C)C)c(O)cc2O)c1-c1ccc(CN2CCOCC2)cc1 [Luminespib] (partner 0.01 µM)
Put shortly:
as §1

Compound in test [4]: O=C(Nc1c[nH]nc1-c1nc2ccc(CN3CCOCC3)cc2[nH]1)NC1CC1 [AT9283] + CS(=O)(=O)N1CCN(Cc2cc3nc(-c4cccc5[nH]ncc45)nc(N4CCOCC4)c3s2)CC1 [Pictilisib] (partner 1 µM)
Put shortly: as §1

Compound in test [5]: C#Cc1cccc(Nc2ncnc3cc(OCCOC)c(OCCOC)cc23)c1 [Erlotinib] + NC(=O)Nc1cc(-c2cccc(F)c2)sc1C(=O)N[C@H]1CCCNC1 [AZD7762] (partner 0.2 µM)
Put shortly:
as §1

With NCI-H2009, the relative viability in test [1] (first compound 0.02 µM) amounted to 1.24; in test [1] (first compound 0.2 µM), 1.16; in test [1] (first compound 0.6325 µM), 1.17; in test [1] (first compound 2 µM), 1.13; in test [2] (first compound 0.02 µM), 1.06; in test [2] (first compound 0.2 µM), 1.03. Moreover, the relative viability was determined as 1.19 in test [2] (first compound 0.6325 µM); 1.01 in test [2] (first compound 2 µM); 1.04 in test [3] (first compound 0.003 µM); 0.978 in test [3] (first compound 0.03 µM); 0.736 in test [3] (first compound 0.09487 µM); 0.325 in test [3] (first compound 0.3 µM). Besides, the relative viability in test [4] (first compound 0.003 µM) worked out at 0.774; in test [4] (first compound 0.03 µM), 0.462; in test [4] (first compound 0.09487 µM), 0.239; in test [4] (first compound 0.3 µM) it was 0.0896.

Take COR-L 105: the relative viability in test [1] (first compound 0.02 µM) stood at 1.09; in test [1] (first compound 0.2 µM) it was 0.659; in test [1] (first compound 0.6325 µM) it was 0.477; in test [1] (first compound 2 µM), 0.243; in test [2] (first compound 0.02 µM), 0.828; in test [2] (first compound 0.2 µM), 0.342. In addition, the relative viability turned out to be 0.407 in test [2] (first compound 0.6325 µM); 0.335 in test [2] (first compound 2 µM); 1.02 in test [3] (first compound 0.003 µM); 0.334 in test [3] (first compound 0.03 µM); 0.401 in test [3] (first compound 0.09487 µM); 0.33 in test [3] (first compound 0.3 µM). Moreover, the relative viability in test [4] (first compound 0.003 µM) was 0.405; in test [4] (first compound 0.03 µM), 0.273; in test [4] (first compound 0.09487 µM), 0.279; in test [4] (first compound 0.3 µM), 0.28.

For the cell line NCI-H1975, the relative viability in test [1] (first compound 0.02 µM) worked out at 0.717; in test [1] (first compound 0.2 µM), 0.696; in test [1] (first compound 0.6325 µM), 0.535; in test [1] (first compound 2 µM) it was 0.454; in test [2] (first compound 0.02 µM) it was 0.381; in test [2] (first compound 0.2 µM) it was 0.355. Further, the relative viability in test [2] (first compound 0.6325 µM) worked out at 0.451; in test [2] (first compound 2 µM), 0.303; in test [3] (first compound 0.003 µM) it was 0.198; in test [3] (first compound 0.03 µM) it was 0.243; in test [3] (first compound 0.09487 µM), 0.215; in test [3] (first compound 0.3 µM), 0.132. Further, the relative viability in test [5] (first compound 0.02 µM) was 0.704; in test [5] (first compound 0.2 µM) it was 0.682; in test [5] (first compound 0.6325 µM) it was 0.605; in test [5] (first compound 2 µM), 0.495; in test [4] (first compound 0.003 µM), 0.26; in test [4] (first compound 0.03 µM) it was 0.179. Besides, the relative viability in test [4] (first compound 0.09487 µM) was 0.18; in test [4] (first compound 0.3 µM) it was 0.165.

In the case of NCI-H1734, the relative viability in test [1] (first compound 0.02 µM) was determined as 0.704; in test [1] (first compound 0.2 µM) it was 0.61; in test [1] (first compound 0.6325 µM) it was 0.84; in test [1] (first compound 2 µM) it was 0.602; in test [2] (first compound 0.02 µM) it was 1.1; in test [2] (first compound 0.2 µM), 0.955. Moreover, the relative viability in test [2] (first compound 0.6325 µM) is 1.17; in test [2] (first compound 2 µM), 0.961; in test [3] (first compound 0.003 µM), 0.221; in test [3] (first compound 0.03 µM) it was 0.145; in test [3] (first compound 0.09487 µM), 0.165; in test [3] (first compound 0.3 µM), 0.18. Besides, the relative viability stood at 0.579 in test [5] (first compound 0.02 µM); 0.513 in test [5] (first compound 0.2 µM); 0.607 in test [5] (first compound 0.6325 µM); 0.507 in test [5] (first compound 2 µM); 0.406 in test [4] (first compound 0.003 µM); 0.271 in test [4] (first compound 0.03 µM). Further, the relative viability in test [4] (first compound 0.09487 µM) stood at 0.299; in test [4] (first compound 0.3 µM), 0.221.
